Test results reported in patent publication US6462043B1 (dated 2002).

| Compound | melting point [°C] |
| --- | --- |
| CCCOCCCN1CN(C)/C(=N/[N+](=O)[O-])N(Cc2ccc(Cl)nc2)C1 | 70 to 72 |
| CN/C(=N/[N+](=O)[O-])NCc1cnc(Cl)c(Cl)c1 | 173 to 174 |
